Key:
HRAS wild-type protein = HRAS wild-type protein (Homo sapiens, UniProt P01112); test: Binding to HRAS by surface plasmon resonance (SPR), KD and KD ratio to KRAS; conditions: ratio of KD for HRAS wild-type protein to KD for KRAS
Outline: (§1)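 Biotinylated GDP-bound RAS was captured at about 100–300 RU. Running buffer: HBS pH 7.4, 10 mM MgCl2, 10 µM GDP, 1 mM DTT, 0.01% Tween 20, 4% DMSO.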

[1] = biological target: GDP-bound NRAS wild-type protein (Homo sapiens, UniProt P01111); test: Binding to NRAS by surface plasmon resonance (SPR), KD and KD ratio to KRAS; conditions: ratio of KD for GDP-bound NRAS wild-type protein to KD for KRAS
GDP-bound NRAS wild-type protein, sequence (P01111 whole entry): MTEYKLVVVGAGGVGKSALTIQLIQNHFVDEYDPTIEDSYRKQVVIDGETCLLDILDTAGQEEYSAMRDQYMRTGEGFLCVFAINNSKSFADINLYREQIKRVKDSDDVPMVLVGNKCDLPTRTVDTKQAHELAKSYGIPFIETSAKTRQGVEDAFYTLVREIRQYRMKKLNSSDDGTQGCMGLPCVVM
Outline: as §1

[2] = system: human lung cancer strain NCI-H441; type: cell-based
Outline: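 Step one: dispense the test compound in serial DMSO dilutions. Step three: add the reagent and measure […].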

HRAS wild-type protein, sequence (P01112 whole entry): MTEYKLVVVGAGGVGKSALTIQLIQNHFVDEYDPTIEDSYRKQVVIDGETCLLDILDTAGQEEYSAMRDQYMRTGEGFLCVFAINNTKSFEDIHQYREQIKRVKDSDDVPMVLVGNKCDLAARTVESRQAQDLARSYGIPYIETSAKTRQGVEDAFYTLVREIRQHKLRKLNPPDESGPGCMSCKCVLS

Row | SMILES | HRAS /KRAS (HRAS wild-type protein) | NRAS /KRAS [1] | IC50 [2] [µM]
1 | CCC(CC)[C@H]1C(=O)N(C)[C@H](C(=O)N(C)C)CC(=O)N(C)[C@@H](COC)C(=O)N[C@@H]([C@@H](C)CC)C(=O)N(C)CC(=O)N(C)[C@H]2C/C=C\CCN(C2=O)[C@@H](Cc2ccc(C(F)(F)F)cc2)C(=O)N(C)CC(=O)N[C@@H](CCc2ccc(C(F)(F)F)c(Cl)c2)C(=O)N2CC3(CC3)C[C@H]2C(=O)NC2(CC(C)(C)C2)C(=O)N1C [PP2965] | A (a compound having 10 or more and less than 20 is denoted as A) | AA (a compound having 20 or more is denoted as AA) | 0.0271
2 | CCC[C@H]1C(=O)N[C@@H]([C@@H](C)CC)C(=O)N(C)CC(=O)N(C)[C@H]2C/C=C\CCN(C2=O)[C@@H](Cc2ccc(C(F)(F)F)cc2)C(=O)N(C)CC(=O)N[C@@H](CCc2ccc(C(F)(F)F)c(OC)c2)C(=O)N2CCCCC[C@H]2C(=O)NC2(CC(C)(C)C2)C(=O)N(C)[C@@H](C(CC)CC)C(=O)N(C)[C@H](C(=O)N(C)C)CC(=O)N1C [PP2968] | A (a compound having 10 or more and less than 20 is denoted as A) | AA (a compound having 20 or more is denoted as AA) | 0.0295
3 | CCC[C@H]1C(=O)N[C@@H]([C@@H](C)CC)C(=O)N(C)CC(=O)N(C)[C@H]2C/C=C\CCN(C2=O)[C@@H](Cc2ccc(C(F)(F)F)cc2)C(=O)N(C)CC(=O)N[C@@H](CCc2ccc(C(F)(F)F)c(Cl)c2)C(=O)N2C[C@H](OCC)C[C@H]2C(=O)NC2(CC(C)(C)C2)C(=O)N(C)[C@@H](CC(C)(C)C)C(=O)N(C)[C@H](C(=O)N(C)C)CC(=O)N1C [PP2969] | A (a compound having 10 or more and less than 20 is denoted as A) | AA (a compound having 20 or more is denoted as AA) | 0.0027
4 | CCC[C@H]1C(=O)N[C@@H](C2CCCC2)C(=O)N(C)CC(=O)N(C)[C@H]2C/C=C\CCN(C2=O)[C@@H](Cc2ccc(C(F)(F)F)cc2)C(=O)N(C)CC(=O)N[C@@H](CCc2ccc(C(F)(F)F)c(Cl)c2)C(=O)N2C[C@H](OCC)C[C@H]2C(=O)NC2(CC(C)(C)C2)C(=O)N(C)[C@@H](CC(C)(C)C)C(=O)N(C)[C@H](C(=O)N(C)C)CC(=O)N1C [PP2971] | A (a compound having 10 or more and less than 20 is denoted as A) | A (a compound having 10 or more and less than 20 is denoted as A) | 0.0051
5 | CCC(CC)[C@H]1C(=O)N(C)[C@H](C(=O)N(C)C)CC(=O)N(C)[C@@H](COC)C(=O)N[C@@H]([C@@H](C)CC)C(=O)N(C)CC(=O)N(C)[C@H]2C/C=C\CCN(C2=O)[C@@H](Cc2ccc(C(F)(F)F)cc2)C(=O)N(C)CC(=O)N[C@@H](CCc2ccc(Cl)c(Cl)c2)C(=O)N2CCCCC[C@H]2C(=O)NC2(CC(C)(C)C2)C(=O)N1C [PP2972] | A (a compound having 10 or more and less than 20 is denoted as A) | AA (a compound having 20 or more is denoted as AA) | 0.0816
6 | CCC[C@H]1C(=O)N[C@@H]([C@@H](C)CC)C(=O)N(C)CC(=O)N(C)[C@H]2C/C=C\CCN(C2=O)[C@@H](Cc2ccc(C(F)(F)F)cc2)C(=O)N(C)CC(=O)N[C@@H](CCc2ccc(C(F)(F)F)c(Cl)c2)C(=O)N2C[C@H](OCC)C[C@H]2C(=O)NC2(CC(C)(C)C2)C(=O)N(C)[C@@H]([C@@H](C)CC)C(=O)N(C)[C@H](C(=O)N(C)C)CC(=O)N1C [PP2973] | A (a compound having 10 or more and less than 20 is denoted as A) | A (a compound having 10 or more and less than 20 is denoted as A) | 0.0079
7 | CCC[C@H]1C(=O)N[C@@H]([C@@H](C)CC)C(=O)N(C)CC(=O)N(C)[C@H]2C/C=C\CCN(C2=O)[C@@H](Cc2ccc(C(F)(F)F)cc2)C(=O)N(C)CC(=O)N[C@@H](CCc2ccc(C(F)(F)F)c(Cl)c2)C(=O)N2C[C@H](OCC)C[C@H]2C(=O)NC2(CC(C)(C)C2)C(=O)N(C)[C@@H](CC(F)(F)F)C(=O)N(C)[C@H](C(=O)N(C)C)CC(=O)N1C [PP2975] | A (a compound having 10 or more and less than 20 is denoted as A) | A (a compound having 10 or more and less than 20 is denoted as A) | 0.0167
8 | C#CC[C@H]1C(=O)N[C@@H]([C@@H](C)CC)C(=O)N(C)CC(=O)N(C)[C@H]2C/C=C\CCN(C2=O)[C@@H](Cc2ccc(C(F)(F)F)cc2)C(=O)N(C)CC(=O)N[C@@H](CCc2cc(F)c(C(F)(F)F)c(F)c2)C(=O)N2CC3(CC3)C[C@H]2C(=O)NC2(CC(C)(C)C2)C(=O)N(C)[C@@H](C2CCCC2)C(=O)N(C)[C@H](C(=O)N(C)C)CC(=O)N1C [PP2976] | B (a compound having 3 or more and less than 10 is denoted as B) | A (a compound having 10 or more and less than 20 is denoted as A) | 0.0087
9 | CCC[C@H]1C(=O)N[C@@H]([C@@H](C)CC)C(=O)N(C)CC(=O)N(C)[C@H]2C/C=C\CCN(C2=O)[C@@H](Cc2ccc(C(F)(F)F)cc2)C(=O)N(C)CC(=O)N[C@@H](CCc2ccc(C(F)(F)F)c(Cl)c2)C(=O)N2C[C@H](OCC)C[C@H]2C(=O)NC2(CC(C)(C)C2)C(=O)N(C)[C@@H](CC(C)C)C(=O)N(C)[C@H](C(=O)N(C)C)CC(=O)N1C [PP2977] | A (a compound having 10 or more and less than 20 is denoted as A) | A (a compound having 10 or more and less than 20 is denoted as A) | 0.0081
10 | CCC[C@H]1C(=O)N[C@@H]([C@@H](C)CC)C(=O)N(C)CC(=O)N(C)[C@H]2C/C=C\CCN(C2=O)[C@@H](Cc2ccc(C(F)(F)F)cc2)C(=O)N(C)CC(=O)N[C@@H](CCc2ccc(C(F)(F)F)c(Cl)c2)C(=O)N2CC3(CC3)C[C@H]2C(=O)NC2(CC(C)(C)C2)C(=O)N(C)[C@@H](CC(C)(C)C)C(=O)N(C)[C@H](C(=O)N(C)C)CC(=O)N1C [PP2979] | B (a compound having 3 or more and less than 10 is denoted as B) | A (a compound having 10 or more and less than 20 is denoted as A) | 0.005
11 | C#CC[C@H]1C(=O)N[C@@H]([C@@H](C)CC)C(=O)N(C)CC(=O)N(C)[C@H]2C/C=C\CCN(C2=O)[C@@H](Cc2ccc(C(F)(F)F)cc2)C(=O)N(C)CC(=O)N[C@@H](CCc2ccc(C(F)(F)F)c(Cl)c2)C(=O)N2CC3(CC3)C[C@H]2C(=O)NC2(CC(C)(C)C2)C(=O)N(C)[C@@H](C2CCCC2)C(=O)N(C)[C@H](C(=O)N(C)C)CC(=O)N1C [PP2980] | B (a compound having 3 or more and less than 10 is denoted as B) | A (a compound having 10 or more and less than 20 is denoted as A) | 0.0117
12 | CCC[C@H]1C(=O)N[C@@H](C2CCCC2)C(=O)N(C)CC(=O)N(C)[C@H]2C/C=C\CCN(C2=O)[C@@H](Cc2ccc(C(F)(F)F)cc2)C(=O)N(C)CC(=O)N[C@@H](CCc2ccc(C(F)(F)F)c(Cl)c2)C(=O)N2CC3(CC3)C[C@H]2C(=O)NC2(CC(C)(C)C2)C(=O)N(C)[C@@H](CC(C)(C)C)C(=O)N(C)[C@H](C(=O)N(C)C)CC(=O)N1C [PP2981] | A (a compound having 10 or more and less than 20 is denoted as A) | AA (a compound having 20 or more is denoted as AA) | 0.0203
13 | C#CC[C@H]1C(=O)N[C@@H]([C@@H](C)CC)C(=O)N(C)CC(=O)N(C)[C@H]2C/C=C\CCN(C2=O)[C@@H](Cc2ccc(C)cc2)C(=O)N(C)CC(=O)N[C@@H](CCc2ccc(C(F)(F)F)c(Cl)c2)C(=O)N2CC3(CC3)C[C@H]2C(=O)NC2(CC(C)(C)C2)C(=O)N(C)[C@@H](C2CCCC2)C(=O)N(C)[C@H](C(=O)N(C)C)CC(=O)N1C [PP2982] | A (a compound having 10 or more and less than 20 is denoted as A) | A (a compound having 10 or more and less than 20 is denoted as A) | 0.0119
